Legend:
Assay type in all cases: in vivo, human
eyelashes [1] = experiment: Randomized vehicle-controlled study: overall eyelash prominence by GEA scale; conditions: week 16; ITT; 0.03% solution once daily to upper eyelid margins (107/137); p<0.0001 vs vehicle
Method: The objective of this study was to evaluate the safety and efficacy of bimatoprost 0.03% solution once daily compared with vehicle in increasing overall eyelash prominence following dermal administration to the upper eyelid margins.
During the screening visit, each subject was assessed for inclusion/exclusion criteria. Qualifying subjects were randomly allocated in a 1:1 ratio to treatment with bimatoprost 0.03% solution or vehicle, to be applied to both upper eyelid margins once daily in the evening for 4 months.
Subjects applied study medication to the upper eyelid margins using the supplied, disposable, single-use-per-eye applicator once daily in the evening for 4 months. Subjects were instructed to dab or blot any excess study medication runoff on the area outside the upper eyelash margin with a tissue or other absorbent cloth; the upper lid margin was to feel evenly and lightly moist without runoff. Subjects were instructed not to apply study medication to the lower eyelash line. […]
For the primary efficacy endpoint, a clinical response was defined as at least a 1-grade increase in the GEA score from baseline at month 4 (week 16). […] The proportion of subjects with at least a 1-grade increase from baseline was summarized by a frequency table and analyzed by the Pearson's chi-square test for 2-by-2 tables at each visit. […]

eyelashes [2] = experiment: Open-label study of bimatoprost 0.03% on eyelid lash line: photographic Global Eyelash Assessment (GEA)
Method: To assess the safety, efficacy, and subjective experience of using dermal application of bimatoprost 0.03% for the growth of natural eyelashes and as described herein hair in at least one eyebrow region, a prospective, open-label study of subjects who desired longer, thicker (fuller), and darker natural eyelashes was conducted.
This was a prospective, open-label study of subjects who wanted to grow more prominent eyelashes. […] The protocol was in compliance with the Declaration of Helsinki and in accordance with applicable Institutional Review Board regulations approved Aug. 28, 2005. Study subjects gave informed consent prior to initiation of any study-related procedures.
(§1) Subjects were instructed to apply bimatoprost 0.03% to the eyelid lash line once daily for 12 weeks using an applicator (Studio Basics Professional Tools Eye Applicators, Paris Presents Incorporated, Gumee, Ill.) for each upper eyelid each evening and, if necessary, to wipe the areas immediately around the eyelid afterward to remove excess medication. Periodic use of artificial tears was allowed, but only prior to administration of bimatoprost 0.03%.
Photographic Documentation and Analysis. Frontal-(with eyes open) and side-view photographs were taken of the subjects' eyes at each visit; frontal-view images with eyes closed were taken starting at week 1. The photographic assessment planned as a primary a priori endpoint was a dynamic measure assessing change at each visit from baseline photos. The dynamic scale of global change in increased length, thickness, pigmentation, and number of lashes was +0=no change, +½=little change, +1=mild noticeable change, +2=moderate notable change, and +3=major very notable change. A static photographic assessment was calculated. Photographs from subjects who had frontal eyes-closed images available from weeks 1 and 12 were evaluated in a post hoc analysis and scored independently by 2 raters using a validated Global Eyelash Assessment (GEA) scale, designed to objectively evaluate the quality of a subject's eyelashes. One evaluator was a physician and the other was a health outcomes researcher employed by the study sponsor. In this clinician-graded assessment, overall eyelash prominence was rated on a scale from 1 (minimal) to 4 (very marked). The two independently assessed scores for each photograph (1 from each evaluator) were averaged and the change from week 1 was calculated for each patient.
Statistical Analyses. A 2-sided paired t-test was used to evaluate the intraocular pressure change from baseline, and the GEA change from week 1 to week 12 was compared using a Wilcoxon signed-rank test. Analysis of intraocular pressure was performed on a per-eye and per-subject basis. A significance level of 0.05 was used for all statistical tests. Categorical variables were summarized with frequency, count, and percentages.

eyebrows = experiment: Eyebrow growth after chemotherapy-induced eyebrow loss (Example 3); conditions: person, eyebrows lost after chemotherapy
Excerpt: A person participates in a clinical study for eyebrow growth. The patient has lost both their eyebrows as a result of recent treatments of chemotherapy. Bimatoprost 0.03% is applied along the eyebrow line of both eyes. After approximately 4 weeks, the person begins to experience eyebrow growth. […] The person is extremely satisfied with the results and no longer needs to apply make-up in place of real eyebrows.

[3] = Open-label study: adverse events, periorbital darkening, biomicroscopy
Excerpt: as §1
Clinical Examinations. Assessments were conducted at baseline and at weekly study visits at weeks 1, 4, 8, 12 (end of treatment period), and 16 (post-treatment follow-up period). At each visit, subjects underwent a complete eye examination by an ophthalmologist that included intraocular pressure measurements, visual acuity, and biomicroscopy. Subjects were queried at each visit for adverse events and these were recorded by the investigator. The presence of periorbital darkening was noted and graded on a scale of 0 to 4, and adverse event data were collected at each visit during the treatment period.
Health Outcomes Questionnaires. A questionnaire was used to track adverse events and to assess the subjects' satisfaction with treatment and their subjective evaluation of their eyelashes' appearance. Subjects were asked to answer all questions and return the questionnaire at weeks 4, 8, and 12. Subjects were also asked to respond verbally to 2 additional questions and their responses were recorded by site staff (FIGS. 1-4).

With `CCNC(=O)CCC/C=C\C[C@@H]1[C@@H](/C=C/[C@@H](O)CCc2ccccc2)[C@H](O)C[C@@H]1O` [bimatoprost] the “Subjects with at least a 1-grade increase from baseline in overall eyelash prominence (GEA scale)” value (eyelashes [1]) was 78.1%, the “Mean GEA score at week 1” value (eyelashes [2]; 17 subjects with week-1 GEA scores of 1 or 2) was 1.88±0.33 and the “Mean increase in GEA score at week 12” value (eyelashes [2]; 17 subjects with week-1 GEA scores of 1 or 2, P<0.0001) was 1.41±0.44. For the same molecule, the “Mean change in GEA score from week 1 to week 12” value (eyelashes [2]; all 19 subjects, P<0.0001) was 1.37±0.44, the “Mean week-1 GEA score” value (eyelashes [2]; all 19 subjects, scale 1 to 4) was 2.0±0.47 and the “Subjects rated GEA 2 (moderate)” value (eyelashes [2]; week 1 (15/19)) was 79.0%. The “Subjects rated GEA 3 (marked) or higher” value (eyelashes [2]; week 12 (18/19)) was 94.7%, the “Eyebrow outcome following the study” value (eyebrows) was “full, long eyebrows” and the “Time until eyebrow growth begins” value (eyebrows; applied along eyebrow line of both eyes) was “approximately 4 weeks”. For the same molecule, the “Subjects Reported (n): Eye redness” value ([3]; Week 1 (n = 24)) was 2, the “Subjects Reported (n): Periorbital pigmentation changes” value ([3]; Week 1 (n = 24)) was 0 and the “Subjects Reported (n): Possible brown eye shadow effect” value ([3]; Week 1 (n = 24)) was 1. For the same molecule, the “Subjects Reported (n): Burning” value ([3]; Week 4 (n = 27)) was 1, the “Subjects Reported (n): Dryness and tightness” value ([3]; Week 4 (n = 27)) was 1 and the “Subjects Reported (n): Eye redness” value ([3]; Week 4 (n = 27)) was 4. The “Subjects Reported (n): Mild itchiness” value ([3]; Week 4 (n = 27)) was 3, the “Subjects Reported (n): Periorbital pigmentation changes” value ([3]; Week 4 (n = 27)) was 3 and the “Subjects Reported (n): Periorbital redness” value ([3]; Week 4 (n = 27)) was 1. For the same molecule, the “Subjects Reported (n): Burning” value ([3]; Week 8 (n = 20)) was 2, the “Subjects Reported (n): Mild itchiness” value ([3]; Week 8 (n = 20)) was 2 and the “Subjects Reported (n): Periorbital pigmentation changes” value ([3]; Week 8 (n = 20)) was 1. The “Subjects Reported (n): Redness and dryness” value ([3]; Week 8 (n = 20)) was 1, the “Subjects Reported (n): Dryness and darkening” value ([3]; Week 12 (n = 23)) was 1 and the “Subjects Reported (n): Eye redness” value ([3]; Week 12 (n = 23)) was 1. The “Subjects Reported (n): Eyelid redness” value ([3]; Week 12 (n = 23)) was 1, the “Subjects Reported (n): Itching” value ([3]; Week 12 (n = 23)) was 1 and the “Subjects Reported (n): Periorbital pigmentation changes” value ([3]; Week 12 (n = 23)) was 3. The “Subjects Reported (n): Red and sore” value ([3]; Week 12 (n = 23)) was 1, the “Hyperemia on biomicroscopy examination” value ([3]; any subject at any visit) was “not observed” and the “Subjects with periorbital darkening” value ([3]; during the course of the study, 28 subjects) was 18%. The “Subjects whose pigmentation changes were noted as possible, slight or a little” value ([3]; of 28 subjects) was 11% and the “Serious or unexpected adverse events” value ([3]; whole study) was “no serious or unexpected adverse events”.
